Earlier results, collected in paper PMC8035703, “Effect of Synchronous Versus Sequential Regimens on the Pharmacokinetics and Biodistribution of Regorafenib with Irradiation” (Pharmaceutics, 2021).

Design: method as in PMID 26867886, PMID 28202227, PMID 24971021
Settings: HCC patients who received RT concurrently or sequentially with sorafenib; cited from earlier work

## CNC(=O)c1cc(Oc2ccc(NC(=O)Nc3ccc(Cl)c(C(F)(F)F)c3)cc2)ccn1 [sorafenib]
  Incidence of adverse effects: > 30%
